In patent US4999424A, “GAR transformylase inhibitor” (The Pennsylvania State University, priority 1988, dated 1991):

What was measured:
GAR TFase (L1210) = target: T1, GAR TFase (L1210) (Mus musculus, UniProt Q64737); test: L1210 GAR TFase inhibition; type: biochemical; conditions: for Mode of inhibition: L1210 GAR TFase
T1 construct: GAR TFase activity is the C-terminal domain of trifunctional Gart
T1 sequence (Q64737 2-1010): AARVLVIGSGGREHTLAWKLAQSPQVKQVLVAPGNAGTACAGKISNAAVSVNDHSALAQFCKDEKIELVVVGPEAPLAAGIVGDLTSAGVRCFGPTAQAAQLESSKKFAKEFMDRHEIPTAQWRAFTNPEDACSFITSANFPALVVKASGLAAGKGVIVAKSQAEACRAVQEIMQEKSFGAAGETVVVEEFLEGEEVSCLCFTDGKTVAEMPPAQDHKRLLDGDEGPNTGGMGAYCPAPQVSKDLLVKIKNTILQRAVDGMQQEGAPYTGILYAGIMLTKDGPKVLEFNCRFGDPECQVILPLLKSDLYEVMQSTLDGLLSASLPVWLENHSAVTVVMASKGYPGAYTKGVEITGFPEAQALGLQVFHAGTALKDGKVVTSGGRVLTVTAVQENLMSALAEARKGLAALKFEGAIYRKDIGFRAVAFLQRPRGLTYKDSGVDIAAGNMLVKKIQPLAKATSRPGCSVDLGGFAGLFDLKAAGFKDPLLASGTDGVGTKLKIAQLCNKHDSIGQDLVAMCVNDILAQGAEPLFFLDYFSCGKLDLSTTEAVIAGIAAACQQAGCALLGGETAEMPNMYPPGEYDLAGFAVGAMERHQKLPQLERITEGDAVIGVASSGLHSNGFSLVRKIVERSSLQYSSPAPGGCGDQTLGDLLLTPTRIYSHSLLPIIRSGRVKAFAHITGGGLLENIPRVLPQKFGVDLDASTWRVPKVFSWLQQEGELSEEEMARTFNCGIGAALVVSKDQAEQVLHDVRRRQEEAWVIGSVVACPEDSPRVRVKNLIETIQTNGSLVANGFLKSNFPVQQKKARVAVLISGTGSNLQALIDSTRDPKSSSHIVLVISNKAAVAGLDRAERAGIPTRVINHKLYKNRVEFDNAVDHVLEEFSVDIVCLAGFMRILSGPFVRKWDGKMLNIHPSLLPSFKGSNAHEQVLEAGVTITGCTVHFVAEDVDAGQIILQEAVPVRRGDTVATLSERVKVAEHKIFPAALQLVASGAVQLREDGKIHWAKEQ
Description: All assays were carried out by following the increase of 5,8-dideazafolate absorbence at 295 nm in buffered medium at 26° C. To initiate the reaction, enzyme (1 nM final concentration) was added to a mixture of saturating substrates and variable amounts of inhibitor. […] See, Morrison, Trends Biochem. Sc., 7, 102 (1982) and Morrison, et al., Adv. Enzymology, Relat. Areas Mol. Biol., 57, 201-301 (1987).
(§1) The specificity of beta-TGDDF for GAR TFase from species other than E. coli was assayed in a general manner by measuring the activity of GAR TFase at a concentration of 1 nM from avian, HeLa, and L121? sources in the presence of 20 nM beta-TGDDF.
This test, was conducted using the same [I]/[E]ratios as stated previously.
(§2) E. coli GAR TFase was prepared and purified as described below. L1210 and HeLa GAR TFase were purified according to published procedures. AICAR TFase was prepared according to published procedures.

GAR TFase (HeLa O) = target: T2, GAR TFase (HeLa O) (Homo sapiens, UniProt P22102); test: HeLa O GAR TFase inhibition; type: biochemical; conditions: for Mode of inhibition: HeLa O GAR TFase
T2 construct: GAR TFase activity is the C-terminal domain of trifunctional GART
T2 sequence (P22102 2-1010): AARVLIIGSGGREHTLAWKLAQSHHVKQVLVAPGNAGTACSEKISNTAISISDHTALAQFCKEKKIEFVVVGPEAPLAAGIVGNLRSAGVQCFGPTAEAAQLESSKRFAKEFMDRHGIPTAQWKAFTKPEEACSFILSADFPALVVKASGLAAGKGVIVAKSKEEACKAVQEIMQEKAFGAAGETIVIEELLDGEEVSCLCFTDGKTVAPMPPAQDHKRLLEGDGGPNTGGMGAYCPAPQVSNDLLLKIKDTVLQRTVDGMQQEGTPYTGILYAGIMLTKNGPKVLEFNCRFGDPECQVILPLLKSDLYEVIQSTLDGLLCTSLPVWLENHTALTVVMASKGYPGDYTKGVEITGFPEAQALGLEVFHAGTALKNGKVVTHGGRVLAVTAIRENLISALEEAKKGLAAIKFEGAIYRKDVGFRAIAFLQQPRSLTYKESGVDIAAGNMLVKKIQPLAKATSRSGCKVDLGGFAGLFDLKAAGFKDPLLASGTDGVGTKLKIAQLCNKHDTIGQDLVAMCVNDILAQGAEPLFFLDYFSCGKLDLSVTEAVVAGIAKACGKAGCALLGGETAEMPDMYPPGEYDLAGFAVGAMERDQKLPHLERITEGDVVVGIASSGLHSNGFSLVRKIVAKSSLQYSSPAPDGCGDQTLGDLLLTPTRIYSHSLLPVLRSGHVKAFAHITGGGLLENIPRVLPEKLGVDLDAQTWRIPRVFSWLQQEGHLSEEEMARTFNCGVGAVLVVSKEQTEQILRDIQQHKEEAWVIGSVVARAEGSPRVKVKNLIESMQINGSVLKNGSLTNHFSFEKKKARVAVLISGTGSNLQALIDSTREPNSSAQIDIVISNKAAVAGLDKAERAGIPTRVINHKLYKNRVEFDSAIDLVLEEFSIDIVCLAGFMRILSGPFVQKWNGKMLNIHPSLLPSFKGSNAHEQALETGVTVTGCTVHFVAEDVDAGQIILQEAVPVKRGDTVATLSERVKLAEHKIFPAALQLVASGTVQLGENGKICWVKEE
Description: All assays were carried out by following the increase of 5,8-dideazafolate absorbence at 295 nm in buffered medium at 26° C. To initiate the reaction, enzyme (1 nM final concentration) was added to a mixture of saturating substrates and variable amounts of inhibitor. A characteristic family of curves was obtained, showing slow, tight-binding inhibition. See, Morrison, Trends Biochem. Sc., 7, 102 (1982) and Morrison, et al., Adv. Enzymology, Relat. Areas Mol. Biol., 57, 201-301 (1987).
as §1
Table II illustrates the specificity of beta-TGDDF for GAR TFase in comparison with other reduced-folate utilizing enzymes. This test, was conducted using the same [I]/[E]ratios as stated previously.
as §2

Nc1nc2ccc(CN(C(=O)CSCC(=O)N[C@@H]3O[C@H](COP(=O)(O)O)[C@@H](O)[C@H]3O)c3ccc(C(=O)N[C@@H](CCC(=O)O)C(=O)O)cc3)cc2c(=O)[nH]1 [beta-TGDDF, N^10-[5'-phosphoribosyl-1'-β-amino-carbonylmethyl-1-thioacetyl]-5,8-dideazafolate]
Extent of inhibition (GAR TFase (L1210); 20 nM beta-TGDDF, 1 nM enzyme): inhibited by roughly the same magnitude | Mode of inhibition (GAR TFase (L1210)): inhibition of a slow, tight binding nature | Mode of inhibition (GAR TFase (L1210); listed as Beta-TGDDF): slow, tight-binding inhibitor | Extent of inhibition (GAR TFase (HeLa O); 20 nM beta-TGDDF, 1 nM enzyme): inhibited by roughly the same magnitude | Mode of inhibition (GAR TFase (HeLa O)): inhibition of a slow, tight binding nature | Mode of inhibition (GAR TFase (HeLa O); listed as Beta-TGDDF): slow, tight-binding inhibitor
